Reference: patent US12077503B2, “Substituted cyclic amides and their use as herbicides” (FMC CORPORATION, priority 2015, dated 2024)

Tests used:
Type in all cases: in vivo
[1] = system: ryegrass, Italian (Italian ryegrass, Lolium multiflorum); experiment: Test A preemergence; conditions: Lolium multiflorum, pre-emergence, 240 h; for pest or weed control at 125 g/ha: 125 g ai/ha, Preemergence, visual injury rating after approximately 10 d, read-out: Ryegrass, Italian plant response rating (0 to 100 scale, 0 is no effect, 100 is complete control); for pest or weed control at 500 g/ha: 500 g ai/ha, preemergence, visual injury rating about 10 d after treatment, 0 to 100 scale (0 no effect, 100 complete control), read-out: Ryegrass, Italian plant response rating
Summary of the method: (§1)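 Treatment is preemergence as a directed soil spray after planting, or postemergence at the one- to two-leaf stage, with test chemical in a non-phytotoxic solvent mixture plus surfactant. Plants stay in the greenhouse about 10 d before visual injury scoring on a 0 to 100 scale versus untreated controls.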

[2] = system: barnyardgrass (Echinochloa crus-galli); experiment: Test A preemergence; conditions: Echinochloa crus-galli, pre-emergence, 240 h; for pest or weed control at 125 g/ha: 125 g ai/ha, Preemergence, visual injury rating after approximately 10 d, read-out: Barnyardgrass plant response rating (0 to 100 scale, 0 is no effect, 100 is complete control); for pest or weed control at 500 g/ha: 500 g ai/ha, preemergence, visual injury rating about 10 d after treatment, 0 to 100 scale (0 no effect, 100 complete control), read-out: Barnyardgrass plant response rating
Summary of the method: as §1

[3] = system: giant foxtail (Setaria faberii); experiment: Test A preemergence; conditions: Setaria faberi, pre-emergence, 240 h; for pest or weed control at 125 g/ha: 125 g ai/ha, Preemergence, visual injury rating after approximately 10 d, read-out: Foxtail, Giant plant response rating (0 to 100 scale, 0 is no effect, 100 is complete control); for pest or weed control at 500 g/ha: 500 g ai/ha, preemergence, visual injury rating about 10 d after treatment, 0 to 100 scale (0 no effect, 100 complete control), read-out: Foxtail, Giant plant response rating
Summary of the method: as §1

Kochia (Kochia scoparia) [4] = experiment: Test A preemergence; conditions: Bassia scoparia, pre-emergence, 240 h; for pest or weed control at 125 g/ha: 125 g ai/ha, Preemergence, visual injury rating after approximately 10 d, read-out: Kochia plant response rating (0 to 100 scale, 0 is no effect, 100 is complete control); for pest or weed control at 500 g/ha: 500 g ai/ha, preemergence, visual injury rating about 10 d after treatment, 0 to 100 scale (0 no effect, 100 complete control), read-out: Kochia plant response rating
Summary of the method: as §1

[5] = system: pigweed (Amaranthus retroflexus); experiment: Test A preemergence; conditions: Amaranthus retroflexus, pre-emergence, 240 h; for pest or weed control at 125 g/ha: 125 g ai/ha, Preemergence, visual injury rating after approximately 10 d, read-out: Pigweed plant response rating (0 to 100 scale, 0 is no effect, 100 is complete control); for pest or weed control at 500 g/ha: 500 g ai/ha, preemergence, visual injury rating about 10 d after treatment, 0 to 100 scale (0 no effect, 100 complete control), read-out: Pigweed plant response rating
[6] = system: ragweed (common ragweed, Ambrosia elatior); experiment: Test A preemergence; conditions: Ambrosia artemisiifolia, pre-emergence, 240 h; for pest or weed control at 125 g/ha: 125 g ai/ha, Preemergence, visual injury rating after approximately 10 d, read-out: Ragweed plant response rating (0 to 100 scale, 0 is no effect, 100 is complete control); for pest or weed control at 500 g/ha: 500 g ai/ha, preemergence, visual injury rating about 10 d after treatment, 0 to 100 scale (0 no effect, 100 complete control), read-out: Ragweed plant response rating
Summary of the method: as §1

[7] = system: sedge, umbrella (small-flower umbrella sedge, Cyperus difformis); experiment: Test B flooded paddy test; conditions: Cyperus difformis, 250 g ai/ha, Flood; 0 to 100 scale where 0 is no effect and 100 is complete control; read-out: Sedge, Umbrella plant response rating
Summary of the method: (§2)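 Response scored visually against untreated controls, 0 = no effect and 100 = complete control, 13–15 d after treatment in the greenhouse. Compounds added to paddy water held 3 cm above soil surface. Treatment given at 2-leaf stage.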

[8] = system: barnyardgrass (Echinochloa crus-galli); experiment: Test B flooded paddy test; conditions: Echinochloa crus-galli, 250 g ai/ha, Flood; 0 to 100 scale where 0 is no effect and 100 is complete control; read-out: Barnyardgrass plant response rating
Summary of the method: as §2

rice (Oryra sativa) = experiment: Test B flooded paddy test; conditions: Oryza sativa, 250 g ai/ha, Flood; 0 to 100 scale where 0 is no effect and 100 is complete control; read-out: Rice plant response rating
Summary of the method: as §2

[9] = system: ducksalad (Heteranthera limosa); experiment: Test B flooded paddy test; conditions: Heteranthera limosa, 250 g ai/ha, Flood; 0 to 100 scale where 0 is no effect and 100 is complete control; read-out: Ducksalad plant response rating
Summary of the method: as §2

[10] = system: ryegrass, Italian (Italian ryegrass, Lolium multiflorum); experiment: Test A postemergence; conditions: Lolium multiflorum, post-emergence, 240 h, read-out: Plant response rating, Ryegrass, Italian; for pest or weed control at 125 g/ha: 125 g ai/ha, Postemergence, visual injury after approximately 10 d, 0 to 100 scale where 0 is no effect and 100 is complete control; for pest or weed control at 500 g/ha: 500 g ai/ha, postemergence, visual injury, 0 to 100 scale (0 no effect, 100 complete control), approx. 10 d
Summary of the method: as §1

[11] = system: barnyardgrass (Echinochloa crus-galli); experiment: Test A postemergence; conditions: Echinochloa crus-galli, post-emergence, 240 h, read-out: Plant response rating, Barnyardgrass; for pest or weed control at 125 g/ha: 125 g ai/ha, Postemergence, visual injury after approximately 10 d, 0 to 100 scale where 0 is no effect and 100 is complete control; for pest or weed control at 500 g/ha: 500 g ai/ha, postemergence, visual injury, 0 to 100 scale (0 no effect, 100 complete control), approx. 10 d
Summary of the method: as §1

[12] = system: wheat (Triticum aestivum); experiment: Test A postemergence; conditions: Triticum aestivum, post-emergence, 240 h, read-out: Plant response rating, Wheat; for plant injury at 125 g/ha: 125 g ai/ha, Postemergence, visual injury after approximately 10 d, 0 to 100 scale where 0 is no effect and 100 is complete control; for plant injury at 500 g/ha: 500 g ai/ha, postemergence, visual injury, 0 to 100 scale (0 no effect, 100 complete control), approx. 10 d
Summary of the method: as §1

[13] = system: blackgrass (Alopecurus myosuroides); experiment: Test A postemergence; conditions: Alopecurus myosuroides, post-emergence, 240 h, read-out: Plant response rating, Blackgrass; for pest or weed control at 125 g/ha: 125 g ai/ha, Postemergence, visual injury after approximately 10 d, 0 to 100 scale where 0 is no effect and 100 is complete control; for pest or weed control at 500 g/ha: 500 g ai/ha, postemergence, visual injury, 0 to 100 scale (0 no effect, 100 complete control), approx. 10 d
Summary of the method: as §1

[14] = system: Galium (catchweed bedstraw, Galium aparine); experiment: Test A postemergence; conditions: Galium, post-emergence, 240 h, read-out: Plant response rating, Galium; for pest or weed control at 125 g/ha: 125 g ai/ha, Postemergence, visual injury after approximately 10 d, 0 to 100 scale where 0 is no effect and 100 is complete control; for pest or weed control at 500 g/ha: 500 g ai/ha, postemergence, visual injury, 0 to 100 scale (0 no effect, 100 complete control), approx. 10 d
Summary of the method: as §1

[15] = system: giant foxtail (Setaria faberii); experiment: Test A postemergence; conditions: Setaria faberi, post-emergence, 240 h, read-out: Plant response rating, Foxtail, Giant; for pest or weed control at 125 g/ha: 125 g ai/ha, Postemergence, visual injury after approximately 10 d, 0 to 100 scale where 0 is no effect and 100 is complete control; for pest or weed control at 500 g/ha: 500 g ai/ha, postemergence, visual injury, 0 to 100 scale (0 no effect, 100 complete control), approx. 10 d
Summary of the method: as §1

Kochia (Kochia scoparia) [16] = experiment: Test A postemergence; conditions: Bassia scoparia, post-emergence, 240 h, read-out: Plant response rating, Kochia; for pest or weed control at 125 g/ha: 125 g ai/ha, Postemergence, visual injury after approximately 10 d, 0 to 100 scale where 0 is no effect and 100 is complete control; for pest or weed control at 500 g/ha: 500 g ai/ha, postemergence, visual injury, 0 to 100 scale (0 no effect, 100 complete control), approx. 10 d
Summary of the method: as §1

[17] = system: pigweed (Amaranthus retroflexus); experiment: Test A postemergence; conditions: Amaranthus retroflexus, post-emergence, 240 h, read-out: Plant response rating, Pigweed; for pest or weed control at 125 g/ha: 125 g ai/ha, Postemergence, visual injury after approximately 10 d, 0 to 100 scale where 0 is no effect and 100 is complete control; for pest or weed control at 500 g/ha: 500 g ai/ha, postemergence, visual injury, 0 to 100 scale (0 no effect, 100 complete control), approx. 10 d
Summary of the method: as §1

corn (Zea mays) = experiment: Test A postemergence; conditions: Zea mays, post-emergence, 240 h; for Corn plant response rating (crop injury, 0 = no effect, 100 = complete kill) at 125 g/ha: 125 g ai/ha, Postemergence, visual injury after approximately 10 d, 0 to 100 scale where 0 is no effect and 100 is complete control; for Corn plant response rating (crop injury, 0 = no effect, 100 = complete kill) at 500 g/ha: 500 g ai/ha, postemergence, visual injury, 0 to 100 scale (0 no effect, 100 complete control), approx. 10 d
Summary of the method: as §1

[18] = system: ragweed (common ragweed, Ambrosia elatior); experiment: Test A postemergence; conditions: Ambrosia artemisiifolia, post-emergence, 240 h, read-out: Plant response rating, Ragweed; for pest or weed control at 125 g/ha: 125 g ai/ha, Postemergence, visual injury after approximately 10 d, 0 to 100 scale where 0 is no effect and 100 is complete control; for pest or weed control at 500 g/ha: 500 g ai/ha, postemergence, visual injury, 0 to 100 scale (0 no effect, 100 complete control), approx. 10 d
Summary of the method: as §1

Structure (SMILES)	pest or weed control at 125 g/ha [1] [%]	pest or weed control at 500 g/ha [1] [%]	pest or weed control at 125 g/ha [2] [%]	pest or weed control at 500 g/ha [2] [%]	pest or weed control at 125 g/ha [3] [%]	pest or weed control at 500 g/ha [3] [%]	pest or weed control at 125 g/ha (Kochia (Kochia scoparia) [4]) [%]	pest or weed control at 500 g/ha (Kochia (Kochia scoparia) [4]) [%]	pest or weed control at 125 g/ha [5] [%]	pest or weed control at 500 g/ha [5] [%]	pest or weed control at 125 g/ha [6] [%]	pest or weed control at 500 g/ha [6] [%]	pest or weed control at 250 g/ha [7] [%]	pest or weed control at 250 g/ha [8] [%]	pest or weed control at 250 g/ha (rice (Oryra sativa)) [%]	pest or weed control at 250 g/ha [9] [%]	pest or weed control at 125 g/ha [10] [%]	pest or weed control at 500 g/ha [10] [%]	pest or weed control at 125 g/ha [11] [%]	pest or weed control at 500 g/ha [11] [%]	other results
CSc1ccccc1NC(=O)[C@H]1C(=O)N(C)C[C@@H]1c1ccc(C)c(Cl)c1 [Compound 1015]	40	90	90	90	90	90	0	60	0	40	0	50	35	95	40	90	30	50	90	90	plant injury at 125 g/ha [12]: 0%; plant injury at 500 g/ha [12]: 60%; pest or weed control at 125 g/ha [13]: 0%; pest or weed control at 500 g/ha [13]: 50%; pest or weed control at 125 g/ha [14]: 40%; pest or weed control at 500 g/ha [14]: 70%; pest or weed control at 125 g/ha [15]: 80%; pest or weed control at 500 g/ha [15]: 80%; pest or weed control at 125 g/ha (Kochia (Kochia scoparia) [16]): 0%; pest or weed control at 500 g/ha (Kochia (Kochia scoparia) [16]): 50%; pest or weed control at 125 g/ha [17]: 30%; pest or weed control at 500 g/ha [17]: 50%; Corn plant response rating (crop injury, 0 = no effect, 100 = complete kill) at 125 g/ha (corn (Zea mays)): 70%; Corn plant response rating (crop injury, 0 = no effect, 100 = complete kill) at 500 g/ha (corn (Zea mays)): 90%; pest or weed control at 125 g/ha [18]: 0%; pest or weed control at 500 g/ha [18]: 40%
Cc1ccc([C@H]2CN(C)C(=O)[C@@H]2C(=O)Nc2ccccc2S(C)(=O)=O)cc1Cl [Compound 1018]	0	70	90	90	90	90	0	60	30	80	0	40	0	65	0	90	30	60	90	90	plant injury at 125 g/ha [12]: 30%; plant injury at 500 g/ha [12]: 50%; pest or weed control at 125 g/ha [13]: 0%; pest or weed control at 500 g/ha [13]: 50%; pest or weed control at 125 g/ha [14]: 30%; pest or weed control at 500 g/ha [14]: 60%; pest or weed control at 125 g/ha [15]: 90%; pest or weed control at 500 g/ha [15]: 90%; pest or weed control at 125 g/ha (Kochia (Kochia scoparia) [16]): 30%; pest or weed control at 500 g/ha (Kochia (Kochia scoparia) [16]): 50%; pest or weed control at 125 g/ha [17]: 30%; pest or weed control at 500 g/ha [17]: 60%; Corn plant response rating (crop injury, 0 = no effect, 100 = complete kill) at 125 g/ha (corn (Zea mays)): 70%; Corn plant response rating (crop injury, 0 = no effect, 100 = complete kill) at 500 g/ha (corn (Zea mays)): 90%; pest or weed control at 125 g/ha [18]: 0%; pest or weed control at 500 g/ha [18]: 30%
